The text below walks through data of publication PMC8069832, “New Amides and Phosphoramidates Containing Selenium: Studies on Their Cytotoxicity and Antioxidant Activities in Breast Cancer” (Antioxidants, 2021).

The GI50 is the concentration giving 50% growth inhibition. One may read the LC50 as the concentration lethal to half of the exposed cells or organisms.

The test system of series [1] is CCRF-CEM. On the set-up: method as in earlier work. The following applies: DTP database of the NCI; cited from earlier work.
Series [2] deals with MCF-7. Also on record: method as in earlier work. The following applies: DTP database of the NCI; cited from earlier work.
The subject of series [3] is HT-29. Also on record: method as in earlier work. The following applies: DTP database of the NCI; cited from earlier work.
The test system of series [4] is PC-3. On the set-up: method as in earlier work. The following applies: DTP database of the NCI; cited from earlier work.
Series [5] has as its system HTB-54. On the set-up: method as in earlier work. The following applies: DTP database of the NCI, cited from earlier work.
For series [6], the system named is MCF-7. Nature of the series: cells. The following applies: Homo sapiens, MCF7, 48 h.
Series [7] concerns HT-29. Nature of the series: cells. The following applies: Homo sapiens, HT-29, 48 h.
Series [8] concerns PC-3. Briefly: cells. The following applies: Homo sapiens, PC-3, 48 h. In kind it is cell-based. An outline of the steps:
(§1)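 MTT cytotoxicity: 1 × 10^4 cells/well in RPMI + 10% FBS exposed to increasing compound concentrations for 48 h at 37 °C, 5% CO2, then MTT for 4 h and formazan dissolved in DMSO. Initial screen at 50 and 10 µM; at least 3 independent experiments in quadruplicate, SEM reported.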

The test system of series [9] is HTB-54. Nature of the series: cells. In kind it is cell-based. The following applies: Homo sapiens, HTB-54, 48 h. An outline of the steps: as §1
Series [10] has as its system MCF-7. To be noted: read-out: GI50 MCF-7; 48 h, average ± SEM.
Series [11] is described as follows: MTT cytotoxicity in nonmalignant mammary gland derived cells. In kind it is cell-based. The following applies: human; nonmalignant cells, 48 h; read-out: LC50 184B5. An outline of the steps:
(§2)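 184B5 cells grown in supplemented DMEM/F12, BEAS-2B in RPMI with 10% FBS. 1 × 10^4 cells/well exposed to increasing compound concentrations for 48 h at 37 °C, 5% CO2, then MTT 4 h and formazan dissolved in DMSO. At least 3 independent experiments in quadruplicate; cisplatin as reference.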

The test system of another series is 184B5. The description is as above. In kind it is cell-based. In outline:
as §2

In series [12] the test system is CCRF-CEM. Nature of the series: cells. The following applies: Homo sapiens, 48 h.
Series [13] is described as follows: MTT cytotoxicity in nonmalignant bronchial epithelium cells. In kind it is cell-based. To be noted: human; nonmalignant cells, 48 h; read-out: LC50 BEAS-2B. An outline of the steps: as §2
In the next series the test system is BEAS-2B. The description is as above. In kind it is cell-based. In outline: as §2

Read-outs that look alike come from different tables or passages of the source.

`N.N.[Cl][Pt][Cl]` [Cp, cisplatin]: in the series on CCRF-CEM [1], the GI50 is 1 µM and the “TGI CCRF-CEM” value is 79.6 µM. Besides, in the series with MCF-7 [2], the GI50 was 3.2 µM and the “TGI MCF-7” value is given as greater than 100 µM. In the series with HT-29 [3], the GI50 is 7.9 µM and the “TGI HT-29” value is given as greater than 100 µM. Moreover, in the series on PC-3 [4], the GI50 was 5 µM and the “TGI PC-3” value is 50.1 µM. In the series on HTB-54 [5], the “TGI HTB54” value is recorded as 32.7 µM. For the same compound, the GI50 with HTB-54 [5] (read-out: GI50 HTB54) was 9.6 µM.
As for `COP(=O)(Nc1ccc([Se]C#N)cc1)OC` [II.2b], the activity at 10 µM in the series on MCF-7 [6] (read-out: Cell growth (%) MCF-7) was -5.82%; in the series on HT-29 [7] (read-out: Cell growth (%) HT-29) it was -69.4%; in the series on CCRF-CEM [12] (read-out: Cell growth (%) CCRF-CEM), -67.4%. Further, the GI50 in the series with MCF-7 [6] (read-out: GI50 MCF-7, 48 h, average ± SEM) was less than 1 µM; with HT-29 [7] (read-out: GI50 HT-29), 2 ± 0.3 µM; with PC-3 [8] (read-out: GI50 PC-3), 6.4 ± 0.2 µM; with HTB-54 [9] (read-out: GI50 HTB54), 6.2 ± 0.2 µM; in the series on MCF-7 [10] it was 0.6 ± 0.2 µM; in the series with 184B5 (Homo sapiens, 184B5, 48 h, read-out: GI50 184B5), 5.44 µM. Further, the GI50 was 1.6 ± 0.2 µM in the series with CCRF-CEM [12] (read-out: GI50 CCRF-CEM) and 5.22 µM with BEAS-2B (Homo sapiens, BEAS-2B, 48 h, read-out: GI50 BEAS-2B). Also, the CC50 with MCF-7 [6] (read-out: LC50 MCF-7) came to 9.1 ± 0.7 µM; in the series with HT-29 [7] (read-out: LC50 HT-29), 5 ± 0.1 µM; in the series on HTB-54 [9] (read-out: LC50 HTB54), 34.6 ± 0.4 µM; in the series with CCRF-CEM [12] (read-out: LC50 CCRF-CEM) it was 4.8 ± 0.3 µM. The IC (TGI) was determined as 5 ± 1 µM in the series on MCF-7 [6] (read-out: TGI MCF-7); 3.5 ± 0.1 µM with HT-29 [7] (read-out: TGI HT-29); 9.3 ± 0.1 µM with PC-3 [8] (read-out: TGI PC-3); 8.6 ± 0.4 µM in the series with HTB-54 [9] (read-out: TGI HTB54); 6.94 µM with 184B5 (Homo sapiens, 184B5, 48 h, read-out: TGI 184B5); 3.2 ± 0.2 µM in the series with CCRF-CEM [12] (read-out: TGI CCRF-CEM). Further, the IC (TGI) with BEAS-2B (Homo sapiens, BEAS-2B, 48 h, read-out: TGI BEAS-2B) came to 6.8 µM. Further, the LC50 with PC-3 [8] (read-out: LC50 PC-3) was 49 ± 0.7 µM. The CC50 at 48 h in [11] was 8.44 µM. The “Selectivity index (SI) = GI50 (184B5)/GI50 (MCF-7)” value in the series on 184B5 (breast) is on record as 7.56. Also, in series [13], the LC50 (50% lethal concentration) at 48 h came out at 8.38 µM. In the series on BEAS-2B (lung), the “Selectivity index (SI) = GI50 (BEAS-2B)/GI50 (HTB-54)” value came out at 0.84.
